Reference: US10278971B2, “Fluorocyclopentenylcytosine methods of use” (Rexahn Pharmaceuticals, Inc., priority 2015, dated 2019)

Experiments:
H460 [1] = test: Mice xenograft model, tumor growth inhibition; format: in vivo; details: oral 500 mg/kg, TIWK
Text: (§1) A novel, orally bioavailable nucleoside analogue, RX-3117, is a prodrug activated intracellularly by Uridine Cytidine Kinase 2 (UCK2) that is thought to be expressed predominantly in tumor tissue. RX-3117 is currently being evaluated in a Phase Ib/IIa multi-center, open-label clinical study in patients with advanced pancreatic and bladder cancer. In this study, the relation between UCK2 tissue protein expression and the efficacy of RX-3117 in mice xenograft models and also UCK2 protein expression in a panel of human cancer tissues relative to normal tissue were studied.
(§2) The immunoblotting protein level of UCK2 normalized to beta-actin and corresponding tumor growth inhibition (oral RX-3117 dose of 500 mg/kg, TIWK) were 57 and 67% in MiaPaCa2, 30 and −5% in BxPC3, 199 and 92% in Colo-205, 21 and 90% in Caki-1, 2 and 39% in A549, and 146 and 79% in H460, respectively. […] Average H-Scores of UCK2 in cancer tissues vs. normal tissues were 104 vs. 9 in lung, 97 vs. 20 in bladder, 67 vs. 41 in pancreas and 39 vs. 21 in colon, respectively.

A549 = test: Mice xenograft model, tumor growth inhibition; format: in vivo; details: oral 500 mg/kg, TIWK
Text: as §1, §2

Caki-1 = test: Mice xenograft model, tumor growth inhibition; format: in vivo; details: Caki-1 xenograft, oral 500 mg/kg, TIWK
Text: as §1, §2

MiaPaCa2 = test: Mice xenograft model, tumor growth inhibition; format: in vivo; details: oral 500 mg/kg, TIWK
Text: as §1, §2

Colo-205 = test: Mice xenograft model, tumor growth inhibition; format: in vivo; details: Colo-205 xenograft, oral 500 mg/kg, TIWK
Text: as §1, §2

BxPC3 = test: Mice xenograft model, tumor growth inhibition; format: in vivo; details: oral 500 mg/kg, TIWK
Text: as §1, §2

A549 spheroids = test: Spheroid assay, radiosensitizing effect; format: cell-based, human
Method: The NSCLC cell lines A549 and SW1573 were plated in low attachment 24 well plates (Corning Incorporated, Corning, N.Y.) at a density of 100,000 cells/well and allowed to form spheroids. After three days, single spheroids were transferred to new 24 well low attachment plates (one spheroid/well). Immediately after transfer treatment was started, for A549 and SW1573 cells 1 μM RX-3117 was combined with fractionated 2 Gy irradiation (5 days single 2 Gy dose). Pictures were taken on day 0 (before irradiation) and after 3, 6, 9, and 15 days using a phase contrast microscope (LeicaDMI300B Universal Grab 6.3 software, Digital Cell Imaging Labs). The measurements were taken by ImageJ software (ImageJ 1.45s, Wayne Rasband, National Institutes of Health, Bethesda, Md.) for spheroid volume calculation (V=4/3π(D/2)^3) as described earlier by Galvani et al. (Galvani E, Giovannetti E, Saccani F, Cavazzoni A, Leon L G, Dekker H, Alfieri R, Carmi C, Mor M, Ardizzoni A, Petronini P G and Peters G J: Molecular mechanisms underlying the antitumor activity of 3-aminopropanamide irreversible inhibitors of the epidermal growth factor receptor in non-small cell lung cancer. Neoplasia 15: 61-72, 2013).

H460 [2] = test: Cell cycle distribution by flow cytometry (PI); format: cell-based, human; details: H460, 1 μM, 24 hour exposure
Method: The effect of RX-3117 on cell cycle regulation and cell death in human non-small cell lung cancer (NSCLC) cell lines A549 (adenocarcinoma), SW1573 (alveolar carcinoma) and SW1573/G- (SW1573 cell line resistant to gemcitabine) and H460 (large cell carcinoma) was assessed. The A549 and H460 cell lines were obtained from American Type Culture Collection (Manassas, Va., USA). The SW1573 cell line, obtained from Dr. Johan van Rijn (see Keiser et al., Cancer Research, 49:2988-2993 (1989)), also served as the parental cell line for SW1573/G-. A549, SW1573, and SW1573/G- and H460 were kept in exponential growth in T25 flasks (Greiner Bio-One GmbH, Frickenhausen, Germany) and cultured in Dulbecco's minimal essential medium (DMEM) or RPMI 1640 (A549) supplemented with 10% heat-inactivated fetal bovine serum (FBS) 1% streptomycin and penicillin 20 mM HEPES and maintained in 37° C. water saturated atmospheres of 5% CO2. For the cell cycle distribution, 1.5×10^5 cells were seeded in a T25 flask (Greiner Bio-One GmbH) and cultured for 72 hours after which 1 μM of RX-3117 was added and incubated for 24 hours. The cells were then harvested. After the treatment, the medium was collected in a 15 ml tube (Greiner Bio-One GmbH). […] The cells stained with the PI solution were analyzed by FACSCalibur™ (BD Biosciences, Mount View, Calif., USA). Data was analyzed with CellQuest™ Pro software.

[3] = system: overall methylation of DNA; test: Overall methylation of DNA with antibody against 5-methyl-cytosine; format: cell-based, human; details: A549, 5 μM, 48 hr exposure
Method: DNMT1 protein expression was measured by Western Blotting after exposure to RX-3117 for 24 or 48 hr. DNMT1 RNA expression was measured by real-time PCR after 24 and 48 hr exposure to RX-3117. DNMT enzyme activity was measured in isolated nuclei after exposure 1 μM RX-3117 or 5 μM aza-CdR using a DNA methyltransferase assay kit provided by EpiGentek using the ability of a CpG dinding domain to bind to methylated DNA. In A549 cells the effect of 5 μM RX-3117 on overall methylation was measured with a specific antibody against 5-methyl-cytosine. Bands on Western blots were visualized using appropriate InfraRedDye using an Odyssey InfraRed imager.

For `Nc1ccn([C@@H]2C(F)=C(CO)[C@@H](O)[C@H]2O)c(=O)n1` [RX-3117, 4-amino-1-((1S,4R,5S)-2-fluoro-4,5-dihydroxy-3-hydroxymethyl-cyclopent-2-enyl)-1H-pyrimidin-2-one], the tumor growth inhibition (H460 [1]) was 79%, the tumor growth inhibition (A549) was 39% and the tumor growth inhibition (Caki-1) was 90%. The tumor growth inhibition (MiaPaCa2) was 67%, the tumor growth inhibition (Colo-205) was 92% and the tumor growth inhibition (BxPC3) was −5%. The “spheroid volume growth, combination with irradiation” value (A549 spheroids; A549, 1 μM plus 5 days irradiation with 2 Gy) was “enhanced the effect”, the “spheroid volume growth, RX-3117 alone” value (A549 spheroids; A549, 1 μM, 15 days) was “only a small effect” and the “accumulation of cells in the G1 phase” value (H460 [2]) was “induced accumulation”. The “increased accumulation of cells in the G1 phase” value (H460 [2]) was 20-40% and the “decrease of overall methylation of DNA” value [3] was 25%.
